Data on one molecule can be found in patent US20210300940A1 (Merck Patent GmbH, priority 2018, published 2021).

A value given as a limit tells only on which side of the number the result lay.

The target in experiment [1] is T1, TLR7 (Homo sapiens, UniProt Q9NYK1).
T1 construct: expressed in transfected cells; host or cells: HEK/293 cells carrying TLR7 and an NF-kB luciferase reporter
T1 sequence (Q9NYK1 27-1049): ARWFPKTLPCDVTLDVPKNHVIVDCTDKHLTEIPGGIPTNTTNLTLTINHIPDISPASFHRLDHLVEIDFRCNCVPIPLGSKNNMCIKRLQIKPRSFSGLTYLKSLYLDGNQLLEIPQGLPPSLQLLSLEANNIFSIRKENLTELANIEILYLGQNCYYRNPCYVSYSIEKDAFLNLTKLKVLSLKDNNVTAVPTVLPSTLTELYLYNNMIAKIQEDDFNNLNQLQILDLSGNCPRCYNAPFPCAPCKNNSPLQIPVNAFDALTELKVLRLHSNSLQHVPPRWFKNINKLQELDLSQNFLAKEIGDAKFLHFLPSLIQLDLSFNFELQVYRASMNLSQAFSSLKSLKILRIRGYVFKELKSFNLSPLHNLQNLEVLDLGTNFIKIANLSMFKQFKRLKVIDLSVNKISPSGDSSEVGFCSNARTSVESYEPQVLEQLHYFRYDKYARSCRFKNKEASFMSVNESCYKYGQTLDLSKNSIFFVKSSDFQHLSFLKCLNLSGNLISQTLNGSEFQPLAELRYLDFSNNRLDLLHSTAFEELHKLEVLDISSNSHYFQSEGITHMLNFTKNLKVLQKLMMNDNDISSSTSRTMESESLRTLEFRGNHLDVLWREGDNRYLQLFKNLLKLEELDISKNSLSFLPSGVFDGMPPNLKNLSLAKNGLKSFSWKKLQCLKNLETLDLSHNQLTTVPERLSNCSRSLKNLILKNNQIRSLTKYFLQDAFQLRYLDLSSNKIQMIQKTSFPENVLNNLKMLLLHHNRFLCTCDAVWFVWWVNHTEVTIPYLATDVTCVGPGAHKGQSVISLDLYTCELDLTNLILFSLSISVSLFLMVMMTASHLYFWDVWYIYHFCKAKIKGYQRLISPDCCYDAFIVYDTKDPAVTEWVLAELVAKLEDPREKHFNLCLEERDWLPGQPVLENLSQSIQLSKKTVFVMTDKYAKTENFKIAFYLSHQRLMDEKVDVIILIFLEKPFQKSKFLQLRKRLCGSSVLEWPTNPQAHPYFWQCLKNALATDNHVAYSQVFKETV
The experiment in a line: HEK/293 TLR7 Cell Assay. The experiment is classed as cell-based. As to conditions: TLR7/NFKb HEK cells, R848 agonist 10 uM final concentration, Steady-Glo readout; read-out: TLR7 potency. Summed up:
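Compounds added to HEK cells expressing TLR7 with an NFκB reporter 30 min ahead of 10 uM R848 challenge; luciferase signal (Steady-Glo) measured after 5 h, cells having been seeded 24 h earlier at 5000 per well.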

Experiment [2] has as its target T2, TLR8 (Homo sapiens, UniProt Q9NR97).
T2 construct: expressed in transfected cells; host or cells: HEK/293 reporter cells (NF-kB luciferase)
T2 sequence (Q9NR97 27-1041): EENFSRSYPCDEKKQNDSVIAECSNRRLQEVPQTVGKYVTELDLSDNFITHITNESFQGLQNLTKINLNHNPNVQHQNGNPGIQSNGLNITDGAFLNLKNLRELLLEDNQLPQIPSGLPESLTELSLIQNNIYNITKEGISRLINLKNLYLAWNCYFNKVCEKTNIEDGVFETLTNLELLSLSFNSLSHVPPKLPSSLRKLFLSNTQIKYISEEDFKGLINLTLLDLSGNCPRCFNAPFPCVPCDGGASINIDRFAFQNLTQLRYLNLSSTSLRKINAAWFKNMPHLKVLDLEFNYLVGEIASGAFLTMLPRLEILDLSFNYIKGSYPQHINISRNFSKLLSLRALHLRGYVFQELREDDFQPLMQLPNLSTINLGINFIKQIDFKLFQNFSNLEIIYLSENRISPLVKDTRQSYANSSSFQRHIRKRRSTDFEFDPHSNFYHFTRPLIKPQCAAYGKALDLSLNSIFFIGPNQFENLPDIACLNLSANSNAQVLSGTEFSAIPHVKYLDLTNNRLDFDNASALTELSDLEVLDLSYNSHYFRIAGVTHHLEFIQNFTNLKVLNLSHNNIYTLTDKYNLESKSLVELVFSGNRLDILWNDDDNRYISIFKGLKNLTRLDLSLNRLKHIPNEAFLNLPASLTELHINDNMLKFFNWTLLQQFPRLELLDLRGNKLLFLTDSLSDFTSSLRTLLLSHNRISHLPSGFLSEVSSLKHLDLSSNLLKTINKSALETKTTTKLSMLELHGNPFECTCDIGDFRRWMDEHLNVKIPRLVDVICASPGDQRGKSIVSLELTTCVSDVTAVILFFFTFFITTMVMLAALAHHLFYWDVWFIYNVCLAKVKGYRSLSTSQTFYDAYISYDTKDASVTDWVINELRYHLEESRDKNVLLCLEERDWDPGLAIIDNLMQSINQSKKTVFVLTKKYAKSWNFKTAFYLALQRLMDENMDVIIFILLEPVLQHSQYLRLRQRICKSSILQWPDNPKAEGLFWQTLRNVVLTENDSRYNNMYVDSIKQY
Description: HEK/293 TLR8 Cell Assay. As to conditions: HEK cells, R848 agonist 30 uM final concentration, Steady-Glo readout; read-out: TLR8 potency. The experiment is classed as cell-based.

For `C[C@H]1C[C@@H](NC(=O)[C@@H]2C[C@H](O)CN2)CN(c2ccc(C#N)c3nccnc23)C1` [Example 116, (2S,4S)—N-[(3R,5S)-1-(8-cyanoquinoxalin-5-yl)-5-methylpiperidin-3-yl]-4-hydroxypyrrolidine-2-carboxamide], the figures for the IC50 in experiment [1] and in experiment [2] were > 150 nM and < 75 nM, respectively.
